From PMC5695136 (Theranostics, 2017)

Key:
[1] = First in-human PET/CT imaging; format: in vivo; details: mean SUV averaged over right and left side and all patients (three patients)
[2] = tested on: PSMA+ LNCaP cells; details: equal experimental set up; cited from earlier work

SUV kidneys [1]: 30.5
Structure (SMILES): O=C([O-])CN(CCN(CC(=O)[O-])Cc1cc(CCC(=O)NCCCCCC(=O)NCCCC[C@H](NC(=O)N[C@@H](CCC(=O)O)C(=O)O)C(=O)O)ccc1[O-])Cc1cc(CCC(=O)O)ccc1[O-].[68Ga+3].[OH3+] [[^68Ga]Ga-PSMA-11]
Internalization±SD [2]: 9.47±2.56 %IA/10^6 cells
